According to ChEMBL document CHEMBL1201862, “PubChem BioAssay data set” (2004):
Calls of active or inactive are those of the source.

Assays:
[1] = cytotoxicity in HEK-293T cells, dose response, cytotoxicity control for TCR NF-kB inhibitor project, luminescence, T-cell screen hits (AID 489026); assay type: functional, cell-based;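 also: cells exposed to compound about 14 hours before the viability readout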
INS1 = experiment: beta cell apoptosis inhibitors, cytokine rescue, dose response, luminescence, retest (AID 449756); assay type: functional, cell-based; settings: Rattus norvegicus;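 also: cell death triggered by IL-1 beta plus TNF-alpha plus IFN-gamma mixture; protective hits raise ATP signal compared with cytokine alone wells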
[2] = target: T1, COUP transcription factor 2 (Homo sapiens, UniProt P24468); experiment: Luminescence-based cell-based high throughput dose response assay to identify inhibitors of COUP-TFII (NR2F2).; assay type: functional;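 also: HEK293 cells transiently cotransfected with COUP-TFII expression vector and reporter; luciferase reporter luminescence driven by COUP-TFII from the pX2-168 reporter plasmid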
T1 sequence (P24468 whole entry): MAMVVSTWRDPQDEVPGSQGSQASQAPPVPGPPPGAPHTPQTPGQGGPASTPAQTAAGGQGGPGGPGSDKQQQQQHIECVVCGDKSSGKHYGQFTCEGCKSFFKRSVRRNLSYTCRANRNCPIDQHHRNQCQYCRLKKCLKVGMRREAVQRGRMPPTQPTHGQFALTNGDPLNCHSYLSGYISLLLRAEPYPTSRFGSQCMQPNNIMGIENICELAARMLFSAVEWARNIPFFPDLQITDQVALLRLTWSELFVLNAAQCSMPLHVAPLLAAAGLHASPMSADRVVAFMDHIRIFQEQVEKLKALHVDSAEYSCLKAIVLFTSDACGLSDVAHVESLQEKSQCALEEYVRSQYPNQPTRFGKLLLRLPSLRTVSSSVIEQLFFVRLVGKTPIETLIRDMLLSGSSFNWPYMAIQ

fMet-Leu-Phe receptor = target: T2, fMet-Leu-Phe receptor (Homo sapiens, UniProt P21462); experiment: FPR ligands, dose response (AID 519); assay type: functional
T2 sequence (P21462 whole entry): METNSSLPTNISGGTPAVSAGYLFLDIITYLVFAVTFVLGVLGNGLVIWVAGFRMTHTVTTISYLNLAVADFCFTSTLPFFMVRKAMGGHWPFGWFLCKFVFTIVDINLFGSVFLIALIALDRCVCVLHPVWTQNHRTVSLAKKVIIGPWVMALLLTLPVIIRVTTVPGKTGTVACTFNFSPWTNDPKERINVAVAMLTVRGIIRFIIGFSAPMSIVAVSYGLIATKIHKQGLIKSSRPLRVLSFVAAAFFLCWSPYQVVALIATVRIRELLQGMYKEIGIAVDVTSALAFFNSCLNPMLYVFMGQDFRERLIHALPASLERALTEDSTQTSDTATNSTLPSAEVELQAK

cells [3] = assay type: functional, cell-based
cells [4] = assay type: functional, cell-based; remark: listed apart in the source
[5] = target: T3, Endoribonuclease toxin MazF (Escherichia coli K-12, UniProt P0AE70); experiment: MazF toxin RNase activators, dose response, biochemical, fluorescence, single-stranded RNA substrate, uHTS hits (AID 588481); assay type: functional
T3 sequence (P0AE70 whole entry): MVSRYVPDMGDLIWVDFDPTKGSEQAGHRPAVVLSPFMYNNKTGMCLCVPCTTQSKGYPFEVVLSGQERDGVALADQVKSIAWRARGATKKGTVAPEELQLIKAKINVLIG

[6] = target: T3, Endoribonuclease toxin MazF; experiment: fluorescent RNA oligo signal without MazF, dose response, counter-screen for MazEF activator project, biochemical, fluorescence, single-stranded RNase substrate (AID 588502); assay type: functional
HEK293 = experiment: inhibitors of LMP1-driven NF-kB reporter, dose response, cell-based, HEK293, luciferase, cherry-pick (AID 588343); assay type: functional; settings: Homo sapiens
[7] = LGR2 antagonists, dose response, cell-based, HEK293, CRE-luciferase reporter, cherry pick, set 2 (AID 743343); assay type: functional;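 also: transfected cells were stimulated with diluted bursicon conditioned medium after compound addition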
[8] = MC4R antagonists, dose response, counter-screen for LGR2 antagonist project, cell-based, plate reader, cherry pick (AID 743444); assay type: functional;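 also: transfected HEK 293 cells stimulated with alpha-MSH peptide; potency of inhibitors of the alpha-MSH evoked signal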
[9] = inhibitors of HIV Env-driven cell fusion, dose response, cherry-pick (AID 652057); assay type: functional, cell-based
[10] = ZM109 Env clade C HIV-1 fusion inhibitors, dose response, HeLa effector, CEM target cells, luciferase, cherry-pick (AID 652058); assay type: functional, cell-based
[11] = inhibitors of clade B AD8 Env fusion, dose response, cell-based, cherry-pick (AID 652062); assay type: functional;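 also: luciferase signal from cell-cell fusion driven by HIV-1 clade B AD8 Env; potency is for inhibitors of fusion seen as a drop in luminescence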
[12] = Luminescence-based cell-based high throughput dose response assay to identify activators of the DAF-12 from the parasite S. stercoralis (ssDAF-12).; assay type: functional
[13] = miR-122 activators in hepatoma reporter cells, dose response, cell-based, Huh7 psiCHECK-miR122, Renilla luciferase, cherry-picked (AID 651956); assay type: functional;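 also: huh7 hepatoma cells stably carrying a psiCHECK-2 miR-122 sensor plasmid; renilla luciferase signal reporting endogenous miR-122 activity after 48 h compound exposure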
cells [14] = assay type: functional, cell-based; remark: listed apart in the source
[15] = target: T4, Heat shock factor protein 1 (Mus musculus, UniProt P38532); experiment: inhibition of MG132-induced HSE-luciferase signal, confirmation, cell-based, NIH3T3, luminescence, dose retest (AID 2382); assay type: functional;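 also: NIH3T3 fibroblasts with HSF1-driven luciferase reporter stressed by proteasome inhibitor MG132; luminescence from HSF1-driven luciferase expression after 8 hours of MG132 stress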
T4 sequence (P38532 whole entry): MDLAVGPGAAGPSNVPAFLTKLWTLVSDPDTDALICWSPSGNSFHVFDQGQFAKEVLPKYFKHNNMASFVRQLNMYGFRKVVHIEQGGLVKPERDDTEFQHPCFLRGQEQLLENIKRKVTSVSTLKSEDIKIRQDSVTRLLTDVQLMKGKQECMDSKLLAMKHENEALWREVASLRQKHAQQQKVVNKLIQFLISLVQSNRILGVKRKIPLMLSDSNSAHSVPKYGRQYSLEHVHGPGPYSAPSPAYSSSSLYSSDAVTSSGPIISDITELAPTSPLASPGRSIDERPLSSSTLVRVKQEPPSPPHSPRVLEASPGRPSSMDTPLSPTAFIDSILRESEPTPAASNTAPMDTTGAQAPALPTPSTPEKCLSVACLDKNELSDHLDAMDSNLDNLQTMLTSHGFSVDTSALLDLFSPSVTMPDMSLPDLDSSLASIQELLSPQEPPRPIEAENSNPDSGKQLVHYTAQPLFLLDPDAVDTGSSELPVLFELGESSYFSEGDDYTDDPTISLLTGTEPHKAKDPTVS

cells [16] = assay type: functional, cell-based; remark: listed apart in the source
Nonstructural protein 1 = Nonstructural protein 1 (Influenza A virus, UniProt Q194T2); assay type: functional, Influenza A virus (A/California/07/2009(H1N1))
[17] = target: T5, Apoptotic protease-activating factor 1 (Homo sapiens, UniProt O14727); assay type: functional
T5 sequence (O14727 whole entry): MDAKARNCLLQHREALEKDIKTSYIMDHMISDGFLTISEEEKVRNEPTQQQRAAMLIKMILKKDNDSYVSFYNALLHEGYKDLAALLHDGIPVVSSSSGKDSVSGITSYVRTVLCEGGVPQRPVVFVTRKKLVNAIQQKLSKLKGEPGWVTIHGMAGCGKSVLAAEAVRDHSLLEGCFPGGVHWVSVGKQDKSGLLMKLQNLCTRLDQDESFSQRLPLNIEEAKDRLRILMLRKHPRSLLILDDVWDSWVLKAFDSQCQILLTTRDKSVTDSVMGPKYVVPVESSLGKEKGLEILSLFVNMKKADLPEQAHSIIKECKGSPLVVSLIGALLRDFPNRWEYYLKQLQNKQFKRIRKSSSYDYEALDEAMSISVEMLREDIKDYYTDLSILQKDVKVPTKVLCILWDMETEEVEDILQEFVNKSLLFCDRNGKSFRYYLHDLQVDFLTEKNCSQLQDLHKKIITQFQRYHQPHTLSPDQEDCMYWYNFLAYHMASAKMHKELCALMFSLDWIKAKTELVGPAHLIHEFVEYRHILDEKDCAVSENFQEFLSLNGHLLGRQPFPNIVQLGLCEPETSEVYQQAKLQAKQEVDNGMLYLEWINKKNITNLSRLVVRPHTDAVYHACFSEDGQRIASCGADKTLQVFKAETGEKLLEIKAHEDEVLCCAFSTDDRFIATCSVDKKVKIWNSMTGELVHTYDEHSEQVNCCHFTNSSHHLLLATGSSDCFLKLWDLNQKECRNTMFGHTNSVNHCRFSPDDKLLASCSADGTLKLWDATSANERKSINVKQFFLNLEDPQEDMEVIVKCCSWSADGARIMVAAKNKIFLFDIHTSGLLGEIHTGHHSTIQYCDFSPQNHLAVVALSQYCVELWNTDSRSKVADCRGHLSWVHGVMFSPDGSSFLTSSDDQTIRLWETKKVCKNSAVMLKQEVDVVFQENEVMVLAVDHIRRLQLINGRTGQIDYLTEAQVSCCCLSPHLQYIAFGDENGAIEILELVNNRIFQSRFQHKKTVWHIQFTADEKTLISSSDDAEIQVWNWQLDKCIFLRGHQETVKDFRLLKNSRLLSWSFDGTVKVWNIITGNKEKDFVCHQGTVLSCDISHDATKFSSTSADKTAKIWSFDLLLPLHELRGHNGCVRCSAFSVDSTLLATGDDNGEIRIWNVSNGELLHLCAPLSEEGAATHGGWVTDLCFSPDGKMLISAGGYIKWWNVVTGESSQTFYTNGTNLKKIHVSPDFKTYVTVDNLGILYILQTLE

Caspase-6 = target: T6, Caspase-6 (Homo sapiens, UniProt P55212); experiment: human caspase-6 inhibitors, dose response, biochemical, VEID-R110 fluorescence, cherry-pick (AID 720632)
T6 sequence (P55212 whole entry): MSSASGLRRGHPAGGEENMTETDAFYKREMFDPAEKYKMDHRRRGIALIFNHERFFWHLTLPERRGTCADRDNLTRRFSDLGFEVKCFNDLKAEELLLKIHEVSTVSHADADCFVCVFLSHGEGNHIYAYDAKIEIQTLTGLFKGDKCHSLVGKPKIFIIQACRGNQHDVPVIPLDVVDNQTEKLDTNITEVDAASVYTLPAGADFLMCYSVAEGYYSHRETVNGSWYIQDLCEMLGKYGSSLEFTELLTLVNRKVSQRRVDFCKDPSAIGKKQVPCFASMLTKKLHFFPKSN

Genome polyprotein = Genome polyprotein (dengue virus type 2, UniProt P29990); experiment: Dengue-2 NS5 methyltransferase inhibitors, primary screen, biochemical, confirmation dose response (AID 588689); assay type: functional
Chain of Genome polyprotein (P29990 2492-3391 limits assumed): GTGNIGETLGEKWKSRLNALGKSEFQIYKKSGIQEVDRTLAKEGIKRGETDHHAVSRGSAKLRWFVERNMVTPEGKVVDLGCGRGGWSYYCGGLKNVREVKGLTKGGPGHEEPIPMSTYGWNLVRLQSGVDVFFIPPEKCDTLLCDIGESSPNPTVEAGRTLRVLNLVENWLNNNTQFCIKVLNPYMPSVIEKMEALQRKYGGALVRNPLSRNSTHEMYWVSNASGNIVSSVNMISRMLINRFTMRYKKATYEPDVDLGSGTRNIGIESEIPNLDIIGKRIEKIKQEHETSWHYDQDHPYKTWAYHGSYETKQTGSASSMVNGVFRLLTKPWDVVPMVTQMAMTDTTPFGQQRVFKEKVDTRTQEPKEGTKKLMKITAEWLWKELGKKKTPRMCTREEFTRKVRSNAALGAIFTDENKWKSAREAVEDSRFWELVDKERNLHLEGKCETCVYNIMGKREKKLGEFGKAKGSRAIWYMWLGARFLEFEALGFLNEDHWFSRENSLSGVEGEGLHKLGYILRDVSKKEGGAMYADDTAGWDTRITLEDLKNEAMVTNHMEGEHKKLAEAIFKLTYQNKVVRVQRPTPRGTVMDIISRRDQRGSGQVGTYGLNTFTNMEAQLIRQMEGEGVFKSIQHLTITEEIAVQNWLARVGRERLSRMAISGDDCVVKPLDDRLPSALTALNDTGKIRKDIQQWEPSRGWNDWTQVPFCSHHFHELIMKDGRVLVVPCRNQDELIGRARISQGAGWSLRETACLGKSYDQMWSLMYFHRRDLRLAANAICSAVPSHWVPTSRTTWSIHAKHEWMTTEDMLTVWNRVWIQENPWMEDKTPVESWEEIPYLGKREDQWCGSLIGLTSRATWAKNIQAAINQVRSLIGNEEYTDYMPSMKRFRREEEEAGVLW

Chain of Nonstructural protein 1 (Q194T2 whole entry): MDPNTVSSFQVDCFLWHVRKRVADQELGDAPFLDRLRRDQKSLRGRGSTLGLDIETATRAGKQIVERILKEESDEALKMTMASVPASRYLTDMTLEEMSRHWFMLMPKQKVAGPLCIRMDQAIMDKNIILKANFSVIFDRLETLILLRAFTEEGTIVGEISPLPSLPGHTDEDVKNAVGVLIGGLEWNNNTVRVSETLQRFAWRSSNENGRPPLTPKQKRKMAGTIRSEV

Compound: Cc1ccc(S(=O)(=O)NCc2ccncc2)c(C)c1C
- IC50 [1]: > 80 µM (inactive)
- AC50 (INS1): 2.48 µM (active)
- IC50 [2]: 5.99 µM (active)

Compound: O=S(=O)(c1c[nH]cn1)N1CCc2ccccc21
- Ki (fMet-Leu-Phe receptor): > 66.7 µM (inactive)

Compound: O=C(Cn1cnc2c(oc3ccccc32)c1=O)NCCc1ccccc1
- IC50 (cells [3]): > 29.9 µM (inactive)
- EC50 (cells [4]): > 29.9 µM (inactive)

Compound: CCc1ccc[n+](-c2nc3ccccc3nc2[C-](C#N)C#N)c1
- EC50 [5]: 59.2 µM (inactive)
- EC50 [6]: > 99 µM (inactive)

Compound: O=C(O)CC1Oc2ccc(Cl)cc2NC1=O (centres undefined)
- Ki (fMet-Leu-Phe receptor): > 66.7 µM (inactive)

Compound: C=CCOc1ccc(C2C(C(=O)c3ccco3)=C(O)C(=O)N2Cc2cccnc2)cc1 (centres undefined)
- Ki (fMet-Leu-Phe receptor): 9.7 µM (active)

Compound: COc1ccc(-c2cc(C(=O)N3CCCC3)no2)cc1
- AC50 (HEK293): 3.97 µM (active)
- AC50 [7]: 5.07 µM (active)
- AC50 [8]: 5.22 µM (active)

Compound: CCCC#Cc1ccc2c(c1)O[C@@H](CN(C)S(=O)(=O)c1cccc(F)c1)[C@@H](C)CN([C@@H](C)CO)S2(=O)=O
- AC50 [9]: 4.98 µM (active)
- AC50 [10]: 3.62 µM (active)
- AC50 [11]: 13.3 µM (active)

Compound: Cc1cc(NC2CCCC2)n2ncc(-c3ccccc3)c2n1
- IC50 [2]: 49.3 µM (inactive)

Compound: CCC(C)N1C(=O)/C(=C\c2ccc(N3CCCCCC3)cc2)C(=O)NC1=S (centres undefined)
- IC50 [12]: > 67.5 µM (inactive)

Compound: CCN(C[C@@H]1[C@@H](c2ccc(C3=CCCCC3)cc2)[C@@H](CO)N1CC1CC1)C(C)=O
- AC50 [13]: 31.2 µM (active)

Compound: COc1ccc2nc(SCC(=O)N3CC(=O)Nc4ccccc43)c(C#N)cc2c1
- EC50 [5]: > 99 µM (inactive)
- EC50 [6]: > 99 µM (inactive)

Compound: CCN(C[C@H]1[C@H](c2ccccc2)[C@@H](CO)N1C(=O)C1CC1)C(=O)NC1CCCC1
- AC50 [13]: 47.8 µM (active)

Compound: C[C@@H](C(=O)Nc1ccc2c(c1)OCCO2)n1c(=O)[nH]c2ccccc2c1=O
- EC50 (cells [14]): > 350 µM (not active)
- EC50 [15]: 0.377 µM (active)
- EC50 (cells [16]): > 350 µM (not active)
- AC50 (HEK293): 6.08 µM (active)

Compound: O=C(O)CCNc1cc(N2CCN(C(=O)c3ccco3)CC2)c2noc3c2c1C(=O)c1ccccc1-3
- IC50 (Nonstructural protein 1): 26.9 µM (active)
- IC50 [17]: 21.4 µM (active)

Compound: COCCN(C(=O)c1cc2c(s1)CCC2)c1c(N)n(CC(C)C)c(=O)[nH]c1=O
- AC50 (Caspase-6): 22.4 µM (active)

Compound: CCOC(=O)Nc1ccc(OC)cc1S(=O)(=O)N1CCCCC1
- Ki (fMet-Leu-Phe receptor): > 66.7 µM (inactive)

Compound: COC(=O)CCC(=O)OC1(C)C(=O)C2=CN(C3CCCC3)C(c3ccc(OC)cc3)=CC2=C(Br)C1=O (centres undefined)
- IC50 [17]: 17.4 µM (active)
- IC50 (Genome polyprotein): 33.8 µM (active)

Compound: COc1cc(OC)c(OC)cc1/C=C(\C#N)C(=O)NCc1cccs1
- EC50 [5]: > 99 µM (inactive)
- EC50 [6]: > 99 µM (inactive)
